Measured values reported in PMC7717699, “Tuning the activity of iminosugars: novel N-alkylated deoxynojirimycin derivatives as strong BuChE inhibitors” (Journal of Enzyme Inhibition and Medicinal Chemistry, 2020).
Where two headings read alike, the source gives them in different places.

Columns and labels:
[1] = target: T1, β-galactosidase (Escherichia coli) (Escherichia coli, UniProt P00722); test: β-Galactosidase (E. coli) inhibition; assay type: biochemical
T1 construct: purchased
Protocol: (§1) For both families of enzymes used herein (glycosidases and cholinesterases), stock solutions of the inhibitors were prepared in DMSO; DMSO content was kept at 5% (V/V) for glycosidases and 1.25% (V/V) for cholinesterases. Enzymes were properly dissolved in water in a concentration in which the rate of the reaction when using [S] = 4 × KM is in the range 0.12–0.15 Abs/min. In both kinds of enzymes, an initial screening at 100 µM inhibitor concentration was performed, using the following substrate concentrations: [S] = 0.25 mM for α-glucosidase (Saccharomyces cerevisiae), 4.0 mM for β-glucosidase (almonds), 0.60 mM for α-galactosidase (green coffee beans), 0.51 mM for β-galactosidase (Escherichia coli), 1.5 mM for β-galactosidase (Aspergillus Oryzae), 0.12 mM for AChE (Electrophorus electricus), 0.11 mM for BuChE (equine serum). […] Each assay was run in duplicate.
(§2) Glycosidase assays were accomplished using the methodology reported by Bols and co-workers[30]. Each set of experiments is prepared in PS cuvettes using 0.1 M phosphate buffer (pH 6.8) and the corresponding o- or p-nitrophenyl glycopyranosides as substrates. Reactions were monitored at 25 °C by following the formation of the corresponding nitrophenolates at 400 nm (glucosidases and α-galactosidase) or 420 nm (β-galactosidases) over a time of 125 s.
(§3) Assessment of the inhibitory capacity against glycosidases was accomplished using the methodology reported by Bols and co-workers[30]. p-Nitrophenyl glycosides (o- for β-galactosidases) were used as model substrates, and the release of the corresponding p-nitrophenolates at pH 6.8 was monitored spectrophotometrically (λmax = 400 or 420 nm for p- or o-nitrophenolates, respectively).

[2] = target: T2, β-galactosidase (Aspergillus Oryzae) (Aspergillus oryzae, UniProt Q2UCU3); test: β-Galactosidase (A. oryzae) inhibition; assay type: biochemical
T2 construct: purchased
T2 sequence (Q2UCU3 19-1005): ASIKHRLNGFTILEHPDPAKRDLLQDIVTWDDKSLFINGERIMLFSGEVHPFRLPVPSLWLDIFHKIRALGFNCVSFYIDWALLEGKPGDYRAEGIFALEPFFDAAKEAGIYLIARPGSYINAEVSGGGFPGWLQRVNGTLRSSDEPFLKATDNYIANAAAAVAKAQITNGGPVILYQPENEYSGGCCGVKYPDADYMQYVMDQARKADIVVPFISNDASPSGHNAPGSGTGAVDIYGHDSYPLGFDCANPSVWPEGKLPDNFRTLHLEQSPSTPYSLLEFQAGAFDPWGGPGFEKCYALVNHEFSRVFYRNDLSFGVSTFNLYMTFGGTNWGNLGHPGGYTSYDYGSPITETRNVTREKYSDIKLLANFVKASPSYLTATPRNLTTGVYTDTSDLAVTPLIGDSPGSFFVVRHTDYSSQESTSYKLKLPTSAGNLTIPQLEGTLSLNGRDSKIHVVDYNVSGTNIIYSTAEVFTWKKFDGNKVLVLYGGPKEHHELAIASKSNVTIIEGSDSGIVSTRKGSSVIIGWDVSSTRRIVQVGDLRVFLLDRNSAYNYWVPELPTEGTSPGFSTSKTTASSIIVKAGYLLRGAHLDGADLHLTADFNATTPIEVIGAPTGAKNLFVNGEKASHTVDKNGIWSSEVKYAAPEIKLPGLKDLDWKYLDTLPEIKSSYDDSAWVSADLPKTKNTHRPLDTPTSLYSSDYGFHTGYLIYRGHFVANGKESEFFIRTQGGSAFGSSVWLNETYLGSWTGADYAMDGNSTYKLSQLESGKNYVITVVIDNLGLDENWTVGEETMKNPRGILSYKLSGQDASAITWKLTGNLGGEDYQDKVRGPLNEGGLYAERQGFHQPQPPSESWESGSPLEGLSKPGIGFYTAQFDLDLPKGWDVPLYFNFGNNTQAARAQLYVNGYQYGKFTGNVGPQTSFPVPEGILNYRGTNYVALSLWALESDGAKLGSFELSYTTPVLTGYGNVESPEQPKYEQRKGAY
Protocol: as §1, §2, §3

[3] = target: T3, α-galactosidase (green coffee beans) (Coffea arabica, UniProt Q42656); test: α-Galactosidase inhibition; assay type: biochemical
T3 construct: purchased; host or cells: green coffee beans
T3 sequence (Q42656 16-378): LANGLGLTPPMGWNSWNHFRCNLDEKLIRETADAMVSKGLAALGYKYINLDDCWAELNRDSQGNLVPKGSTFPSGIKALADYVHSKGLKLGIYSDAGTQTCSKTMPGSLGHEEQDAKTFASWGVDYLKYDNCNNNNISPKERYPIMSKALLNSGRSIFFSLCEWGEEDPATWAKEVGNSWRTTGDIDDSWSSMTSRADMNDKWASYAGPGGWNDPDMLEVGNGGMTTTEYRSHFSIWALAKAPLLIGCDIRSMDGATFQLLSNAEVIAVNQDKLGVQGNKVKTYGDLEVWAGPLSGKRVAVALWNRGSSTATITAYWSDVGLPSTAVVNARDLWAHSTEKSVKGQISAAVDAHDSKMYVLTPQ
Protocol: as §1, with “Enzymes” for “For both families of enzymes used herein (glycosidases and cholinesterases), stock solutions of the inhibitors were prepared in DMSO; DMSO content was kept at 5% (V/V) for glycosidases and 1.25% (V/V) for cholinesterases. Enzymes”
Glycosidase assays were accomplished using the methodology reported by Bols and co-workers[30]. Each set of experiments is prepared in PS cuvettes using 0.1 M phosphate buffer (pH 6.8) and the corresponding o- or p-nitrophenyl glycopyranosides as substrates.
as §3

[4] = target: AChE (Electrophorus electricus) (Electrophorus electricus, UniProt O42275); test: AChE inhibition, Ellman's assay; assay type: biochemical; details: for Mode of inhibition AChE: Cornish–Bowden method
AChE (Electrophorus electricus), sequence (O42275 24-633): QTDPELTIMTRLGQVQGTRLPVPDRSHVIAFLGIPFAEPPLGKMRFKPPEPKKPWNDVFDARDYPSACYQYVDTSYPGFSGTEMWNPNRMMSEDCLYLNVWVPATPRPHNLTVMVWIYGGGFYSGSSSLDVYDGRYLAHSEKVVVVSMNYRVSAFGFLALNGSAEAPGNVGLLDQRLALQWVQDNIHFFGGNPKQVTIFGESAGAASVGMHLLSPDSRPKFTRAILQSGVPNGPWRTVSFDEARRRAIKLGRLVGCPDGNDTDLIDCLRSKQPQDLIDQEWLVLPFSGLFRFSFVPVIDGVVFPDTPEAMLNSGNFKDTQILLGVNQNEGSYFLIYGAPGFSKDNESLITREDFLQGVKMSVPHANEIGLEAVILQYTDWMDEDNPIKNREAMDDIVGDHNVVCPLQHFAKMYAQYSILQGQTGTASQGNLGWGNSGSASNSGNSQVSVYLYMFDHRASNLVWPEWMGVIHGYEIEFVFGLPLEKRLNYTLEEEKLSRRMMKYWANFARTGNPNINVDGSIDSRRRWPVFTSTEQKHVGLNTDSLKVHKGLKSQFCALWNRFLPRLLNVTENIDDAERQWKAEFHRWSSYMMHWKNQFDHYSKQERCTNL
Protocol: as §1
(§4) For cholinesterases, minor modifications on Ellman’s assay[31] were performed. The activity was measured in PS cuvettes containing […] (pH 8.0), 0.88 mM DTNB, and substrate (acetyl- and butyryl-thiocholine iodides for AChE and BuChE, respectively), The formation of the chromophore was monitored at 405 nm over a time of 125 s.
(§5) For strong inhibitors, the mode of inhibition was determined using the Cornish–Bowden method, which involves the use of two different plots: 1/v vs. [I] (Dixon plot) and [S]/v vs. [I]. For the calculation of kinetic parameters (KM, Vmax) a nonlinear regression analysis (least squares fit, GraphPad Prism 8.01) was used. Data are expressed as the mean ± SD.
(§6) Derivatives 11 and 12 were tested also against AChE (Electrophorus electricus) and BuChE (equine serum), as recognised models for human cholinesterases due to their close structural resemblance. For that purpose, Ellman’s colorimetric assay was used; this is an indirect test in which acetyl and butyryl thiocholine iodides are used as model substrates, which upon interaction with the enzyme release thiocholine, which in turn reacts with the chromogen reagent 5,5′-dithiobis(2-nitrobenzoic acid (DTNB) to give 2-nitro-5-mercaptobenzoate (at pH 8.0). The monitoring of the latter at 405 nm furnishes the kinetic parameters.

[5] = target: T4, α-glucosidase (Saccharomyces cerevisiae) (Saccharomyces cerevisiae, UniProt P53341); test: α-Glucosidase inhibition (p-nitrophenyl glycoside substrate); assay type: biochemical
T4 construct: purchased
T4 sequence (P53341 whole entry): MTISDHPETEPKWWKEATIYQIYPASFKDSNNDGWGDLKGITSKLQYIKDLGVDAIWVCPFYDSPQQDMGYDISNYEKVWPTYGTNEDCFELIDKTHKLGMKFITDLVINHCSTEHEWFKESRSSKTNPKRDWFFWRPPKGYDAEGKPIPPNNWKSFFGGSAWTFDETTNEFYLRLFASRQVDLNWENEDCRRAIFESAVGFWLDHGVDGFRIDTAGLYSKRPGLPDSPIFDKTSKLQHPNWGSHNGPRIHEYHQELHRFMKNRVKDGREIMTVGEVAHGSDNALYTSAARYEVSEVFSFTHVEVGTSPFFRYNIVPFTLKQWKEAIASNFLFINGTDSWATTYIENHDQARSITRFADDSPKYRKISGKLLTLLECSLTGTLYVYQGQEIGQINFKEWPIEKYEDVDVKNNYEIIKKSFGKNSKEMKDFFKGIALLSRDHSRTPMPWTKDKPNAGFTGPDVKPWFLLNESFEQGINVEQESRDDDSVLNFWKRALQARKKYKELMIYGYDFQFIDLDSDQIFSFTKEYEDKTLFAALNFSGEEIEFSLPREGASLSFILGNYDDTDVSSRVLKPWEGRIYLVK
Protocol: as §1, §2
(Dixon plot) and [S]/v vs. [I]. For the calculation of kinetic parameters (KM, Vmax) a nonlinear regression analysis (least squares fit, GraphPad Prism 8.01) was used. Data are expressed as the mean ± SD.
as §3

[6] = tested on: β-glucosidase (almonds); test: β-Glucosidase inhibition (p-nitrophenyl glycoside substrate); assay type: biochemical; details: for Mode of inhibition β-Glucosidase: Cornish–Bowden method; for IC50: almond enzyme, pH 6.8, 25 °C; for Ki: binding to free enzyme, read-out: Kia β-Glucosidase
Protocol: as §1, §2, §5, §3

[7] = target: T5, BuChE (equine serum) (Equus caballus, UniProt P81908); test: BuChE inhibition, Ellman's assay; assay type: biochemical; details: for Mode of inhibition BuChE: Cornish–Bowden method
T5 construct: 0.11 mM for BuChE (equine serum); from tissue; host or cells: equine serum
T5 sequence (P81908 whole entry): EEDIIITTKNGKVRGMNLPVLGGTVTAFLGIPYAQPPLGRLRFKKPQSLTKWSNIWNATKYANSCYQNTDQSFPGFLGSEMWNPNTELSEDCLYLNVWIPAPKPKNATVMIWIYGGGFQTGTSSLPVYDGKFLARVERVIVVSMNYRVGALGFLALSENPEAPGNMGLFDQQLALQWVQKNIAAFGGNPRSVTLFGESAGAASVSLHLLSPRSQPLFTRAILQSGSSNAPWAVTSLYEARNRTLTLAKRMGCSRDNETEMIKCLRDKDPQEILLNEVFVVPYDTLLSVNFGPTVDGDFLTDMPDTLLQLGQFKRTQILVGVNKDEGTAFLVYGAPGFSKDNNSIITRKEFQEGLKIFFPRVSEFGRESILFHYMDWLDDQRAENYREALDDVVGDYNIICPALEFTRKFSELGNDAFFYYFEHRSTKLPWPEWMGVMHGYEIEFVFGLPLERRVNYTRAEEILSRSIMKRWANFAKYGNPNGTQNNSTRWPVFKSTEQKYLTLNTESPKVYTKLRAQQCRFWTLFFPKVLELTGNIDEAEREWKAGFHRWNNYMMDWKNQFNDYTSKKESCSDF
Protocol: as §1, §4, §5, §6

[8] = cited from earlier work
[9] = Electrophorus electricus, pH 8.0, read-out: IC50 AChE
[10] = equine serum, pH 8.0, read-out: IC50 BuChE
[11] = binding to enzyme-substrate complex, read-out: Kib AChE
[12] = binding to free enzyme, read-out: Kia AChE
[13] = binding to enzyme-substrate complex, read-out: Kib BuChE
[14] = binding to free enzyme, read-out: Kia BuChE

T1 sequence (P00722 2-1024 limits assumed): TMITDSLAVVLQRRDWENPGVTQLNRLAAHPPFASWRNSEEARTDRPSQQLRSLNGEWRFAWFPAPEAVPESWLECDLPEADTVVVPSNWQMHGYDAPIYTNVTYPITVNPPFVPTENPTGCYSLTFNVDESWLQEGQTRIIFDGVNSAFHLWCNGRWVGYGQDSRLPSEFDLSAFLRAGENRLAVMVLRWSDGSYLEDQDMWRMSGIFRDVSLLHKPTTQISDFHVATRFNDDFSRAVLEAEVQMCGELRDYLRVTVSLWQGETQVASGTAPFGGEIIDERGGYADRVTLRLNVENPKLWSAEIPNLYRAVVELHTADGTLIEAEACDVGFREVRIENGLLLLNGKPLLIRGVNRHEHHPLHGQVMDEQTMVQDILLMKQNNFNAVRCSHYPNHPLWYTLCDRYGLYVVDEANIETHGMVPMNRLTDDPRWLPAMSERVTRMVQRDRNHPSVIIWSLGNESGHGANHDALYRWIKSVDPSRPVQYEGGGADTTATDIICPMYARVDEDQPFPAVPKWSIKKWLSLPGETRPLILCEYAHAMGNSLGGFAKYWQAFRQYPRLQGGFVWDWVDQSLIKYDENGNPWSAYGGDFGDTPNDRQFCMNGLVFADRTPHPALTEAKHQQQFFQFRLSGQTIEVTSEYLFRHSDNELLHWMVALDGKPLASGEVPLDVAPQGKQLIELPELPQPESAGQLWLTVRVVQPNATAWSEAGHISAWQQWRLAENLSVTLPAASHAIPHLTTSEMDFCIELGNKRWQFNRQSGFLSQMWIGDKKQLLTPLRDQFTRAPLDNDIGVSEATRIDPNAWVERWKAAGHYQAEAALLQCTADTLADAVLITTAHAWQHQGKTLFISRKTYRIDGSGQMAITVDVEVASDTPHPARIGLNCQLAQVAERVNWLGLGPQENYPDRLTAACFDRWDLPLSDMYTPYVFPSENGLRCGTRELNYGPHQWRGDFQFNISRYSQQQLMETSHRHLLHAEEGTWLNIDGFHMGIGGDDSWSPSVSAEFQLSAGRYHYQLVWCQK

Compound: COc1ccc(CCOCCCCCN2C[C@H](O)[C@@H](O)[C@H](O)[C@H]2CO)cc1 [Compound 12c]
- IC50 [1]: > 100 µM
- IC50 [2]: > 100 µM
- IC50 [3]: > 100 µM
- IC50 [4, 9]: > 100 µM
- IC50 [5]: > 100 µM
- Mode of inhibition β-Glucosidase [6]: Competitive
- IC50 [6]: 25 µM
- Ki [6]: 14 ± 6 µM
- IC50 [7, 10]: > 100 µM

Compound: CCCCCCCCCN1C[C@H](O)[C@@H](O)[C@H](O)[C@H]1CO [N-nonyl-DNJ]
- pKa [8]: 6.7

Compound: OC[C@@H]1[C@@H](O)[C@H](O)[C@@H](O)CN1CCCCCCOCCc1ccc2c(c1)OCO2 [Compound 11g]
- IC50 [1]: > 100 µM
- IC50 [2]: > 100 µM
- IC50 [3]: > 100 µM
- Mode of inhibition AChE [4]: Mixed
- IC50 [4, 9]: 48 µM
- Ki [4, 11]: 43 µM
- Ki [4, 12]: 56 µM
- IC50 [5]: > 100 µM
- Mode of inhibition β-Glucosidase [6]: Competitive
- IC50 [6]: 8.4 µM
- Ki [6]: 9 µM
- Mode of inhibition BuChE [7]: Non-competitive
- Ki [7, 13]: 9.2 ± 1.9 µM
- Ki [7, 14]: 9.2 ± 1.9 µM
- IC50 [7, 10]: 7.3 µM

Compound: OC[C@H]1NC[C@H](O)[C@@H](O)[C@@H]1O [Compound 1-DNJ, 1-deoxynojirimycin, reference compound]
- IC50 ([1]; E. coli enzyme, read-out: IC50 β-Galactosidase (E. coli)): > 100 µM
- IC50 ([2]; Asp. Oryzae enzyme, read-out: IC50 β-Galactosidase (Asp. Oryzae)): > 100 µM
- IC50 [4]: > 100 µM
- IC50 [7]: 10 µM
- Ki [7]: 16 ± 3 µM
- Mode of inhibition BuChE [7]: Non-competitive

Compound: COc1ccc(CCOCCCCCCN2C[C@H](O)[C@@H](O)[C@H](O)[C@H]2CO)cc1OC [Compound 11e]
- IC50 [1]: > 100 µM
- IC50 [2]: > 100 µM
- IC50 [3]: > 100 µM
- Mode of inhibition AChE [4]: mixed inhibitor
- IC50 [4, 9]: 5.8 µM
- Ki [4, 11]: 5.2 µM
- Ki [4, 12]: 9.3 µM
- IC50 [5]: > 100 µM
- Mode of inhibition β-Glucosidase [6]: Competitive
- IC50 [6]: 14 µM
- Ki [6]: 15 µM
- Mode of inhibition BuChE [7]: mixed inhibition
- Ki [7, 13]: 4.5 µM
- Ki [7, 14]: 1.4 µM
- IC50 [7, 10]: 1.9 µM

Compound: COc1ccc(CCOCCCCCCN2C[C@H](O)[C@@H](O)[C@H](O)[C@H]2CO)cc1 [Compound 11c]
- IC50 [1]: > 100 µM
- IC50 [2]: > 100 µM
- IC50 [3]: > 100 µM
- IC50 [4, 9]: > 100 µM
- IC50 [5]: > 100 µM
- Mode of inhibition β-Glucosidase [6]: Competitive
- IC50 [6]: 6 µM
- Ki [6]: 4.5 µM
- IC50 [7, 10]: > 100 µM
